The test concerns TNFα. The experiment in a line: IRAK4 Monocyte TNFα Cell Based Assay. Details: species or system human. The following applies: human monocytes. The gist of the method:
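TNFα release quantified by HTRF (cryptate/XL665 antibody pair, overnight at RT) after 1 h compound pre-incubation (0.1% DMSO) and 4 h LPS challenge at 50 pg/ml, 37 °C, 5,000 monocytes per well. Signal ratio normalised between unstimulated (0%) and stimulated (100%) controls.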

Where [1] appears, read: second part of Table 2, compounds 33-343, unit inferred, read-out: EC50 MONO TNF HTRF.

SMILES strings stand for the structures. Where two headings read alike, the source gives them in different places.

The EC50 is the midpoint of the concentration-response curve. On to `CC(=O)N[C@H]1CC[C@@H](c2nnc(-c3cnc(-c4ccc5cc(C#N)cnn45)cc3NC(C)C)s2)OC1` [Example 84, N-((3S,6S)-6-(5-(6-(3-cyanopyrro1o[1,2-b]pyridazin-7-yl)-4-(isopropylamino)pyridin-3-yl)-1,3,4-thiadiazol-2-yl)tetrahydro-2H-pyran-3-yl)acetamide], for which the EC50 under setting [1] was 8.6 nM.
For `CC(C)Nc1cc(-c2ccc3cc(C#N)cnn23)ncc1-c1nnc(C(=O)N2CCCC2)s1` [Example 9, 7-(4-(isopropylamino)-5-(5-(pyrrolidine-1-carbonyl)-1,3,4-thiadiazol-2-yl)pyridin-2-yl)pyrrolo[1,2-b]pyridazine-3-carbonitrile], the EC50 (Homo sapiens, Monocyte, LPS stimulated, compounds 1-32, read-out: EC50 TNF) is 2130 nM.
Consider `CC(=O)NC1CCC(F)(c2nnc(-c3cnc(-c4ccc5cc(C#N)cnn45)cc3NC3COC3)s2)CC1` (single isomer, unassigned) [Example 195, N-(4-(5-(6-(3-cyanopyrrolo[1,2-b]pyridazin-7-yl)-4-(oxetan-3-ylamino)pyridin-3-yl)-1,3,4-thiadiazol-2-yl)-4-fluorocyclohexy)acetamide], for which the EC50 under setting [1] was found to be 334 nM.
Still for that read-out and setting: the same measure for `CC(C)Nc1cc(-c2ccc3cc(C#N)cnn23)ncc1-c1nnc(N2CCS(=N)(=O)CC2)s1` [Compound 262, 7-(5-(5-(1-imino-1-oxido-116-thiomorpholino)-1,3,4-thiadiazo1-2-yl)-4-(isopropylamino)pyridin-2-yl)pyrrolo[1,2-b]pyridazine-3-carbonitrile]: 69.9 nM.
As for `CC(C)Nc1cc(-c2ccc3cc(C#N)cnn23)ncc1-c1nnc(C(=O)N[C@H]2CC[C@@H](O)CC2)s1` [Example 224, 5-(6-(3-cyanopyrrolo[1,2-b]pyridazin-7-yl)-4-(isopropylamino)pyridin-3-yl)-N-((1s,4s)-4-hydroxycyclohexyl)-1,3,4-thiadiazole-2-carboxamide], the EC50 under setting [1] was determined as 4770 nM.
Same read-out and setting: under `CC(C)Nc1cc(-c2ccc3cc(C#N)cnn23)ncc1-c1nnc(N2C[C@H]3CC[C@@H](C2)[C@@H]3NC(=O)C(C)(C)C(=O)O)s1` [Example 97] stands 21.7 nM; under `CC(=O)N[C@@H]1C[C@H]2C[C@@H]1CN2c1nnc(-c2cnc(-c3ccc4cc(C#N)cnn34)cc2NC(C)C)s1` [Example 73, N-((1R,4R,5R)-2-(5-(6-(3-cyanopyrrolo[1,2-]pyridazin-7-yl)-4-(isopropylamino)pyridin-3-yl)-1,3,4-thiadiazol-2-yl)-2-azabicyclo[2.2.1]heptan-5-yl)acetamide], 64.1 nM; under `CC(C)(O)C(=O)N[C@@H]1[C@@H]2CC[C@H]1CN(c1nnc(-c3cnc(-c4ccc5cc(C#N)cnn45)cc3NC3COC3)s1)C2` [Example 87, N-((1R,5S,8s)-3-(5-(6-(3-cyanopyrrolo[1,2-b]pyridazin-7-yl)-4-(oxetan-3-ylamino)pyridin-3-yl)-1,3,4-thiadiazol-2-yl)-3-azabicyclo[3.2.1]octan-8-yl)-2-hydroxy-2-methylpropanamide], 2.1 nM.
Turning to `CC(=O)N[C@H]1C[C@@H](c2nnc(-c3cnc(-c4ccc5cc(C#N)cnn45)cc3NC(C)C)s2)C1` [Compound 279, N-((1s,3s)-3-(5-(6-(3-cyanopyrrolo[1,2-b]pyridazin-7-yl)-4-(isopropylamino)pyridin-3-yl)-1,3,4-thiadiazol-2-yl)cyclobutyl)acetamide], the EC50 under setting [1] came out at 15.9 nM.
On the same count and under the same terms, under `CC(=O)N[C@H]1CC[C@H](c2nnc(-c3cnc(-c4ccc5cc(C#N)cnn45)cc3N[C@H]3CCC[C@@H](O)C3)s2)CC1` [Compound 245, N-((1S,4r)-4-(5-(6-(3-cyanopyrrolo[1,2-b]pyridazin-7-yl)-4-(((1S,3R)-3-hydroxycyclohexyl)amino)pyridin-3-yl)-1,3,4-thiadiazol-2-yl)cyclohexyl)acetamide] stands 3.2 nM.
On the same count and under the same terms, the same measure for `CC(C)Nc1cc(-c2ccc3cc(C#N)cnn23)ncc1-c1nnc([C@H]2CC[C@@H](NC(=O)C(C)(C)O)CC2)s1` [Example 312, N-((1s,4s)-4-(5-(6-(3-cyanopyrrolo[1,2-b]pyridazin-7-yl)-4-(isopropylamino)pyridin-3-yl)-1,3,4-thiadiazol-2-yl)cyclohexyl)-2-hydroxy-2-methylpropanamide]: 17.5 nM.
Same read-out and setting: the same measure for `CC(C)Nc1cc(-c2ccc3cc(C#N)cnn23)ncc1-c1nnc(CC#N)s1` [Compound 321]: 53.5 nM.
Take `CC(=O)NC1CCN(c2nnc(-c3cnc(-c4ccc5cc(C#N)cnn45)cc3NC(C)C)s2)C[C@@H]1O` (stereo in doubt) [Example 64, N-((3S,4R)-1-(5-(6-(3-cyanopyrrolo[1,2-b]pyridazin-7-yl)-4-(isopropylamino)pyridin-3-yl)-1,3,4-thiadiazol-2-yl)-3-hydroxypiperidin-4-yl)acetamide]: the EC50 (Homo sapiens, Monocyte, second part of Table 2, compounds 33-343, unit inferred, read-out: EC50 MONO TNF HTRF) is 6.9 nM.
As to `COC(=O)NC[C@H]1C[C@H](Nc2cc(-c3ccc4cc(C#N)cnn34)ncc2-c2nnc([C@H]3CC[C@H](NC(=O)C4CC4)CC3)s2)C1` [Example 134, methyl (((1R,3r)-3-((2-(3-cyanopyrrolo[1,2-b]pyridazin-7-yl)-5-(5-((1r,4R)-4-(cyclopropanecarboxamido)cyclohexyl)-1,3,4-thiadiazol-2-yl)pyridin-4-yl)amino)cyclobutyl)methyl)carbamate], the EC50 under setting [1] stood at 6.9 nM.
Still for that read-out and setting: under `CC(C)Nc1cc(-c2ccc3cc(C#N)cnn23)ncc1-c1nnc(C(=O)N[C@H]2C[C@](C)(O)C2)s1` [Example 219] stands 2070 nM; under `COC(=O)N[C@@H]1[C@@H]2CC[C@H]1CN(c1nnc(-c3cnc(-c4ccc5cc(C#N)cnn45)cc3NC(C)C)s1)C2` [Example 59, methyl ((1R,5S,8s)-3-(5-(6-(3-cyanopyrrolo[1,2-b]pyridazin-7-yl)-4-(isopropylamino)pyridin-3-yl)-1,3,4-thiadiazol-2-yl)-3-azabicyclo[3.2.1]octan-8-yl)carbamate], 14.7 nM; under `CC(C)Nc1cc(-c2ccc3cc(C#N)cnn23)ncc1-c1nnc(N2C[C@H]3CC[C@@H](C2)[C@@]3(C)O)s1` [Example 153, 7-(5-(5-((1R,55,8r)-8-hydroxy-8-methyl-3-azabicyclo[3.2.1]octan-3-yl)-1,3,4-thiadiazol-2-yl)-4-(isopropylamino)pyridin-2-yl)pyrrolo[1,2-b]pyridazine-3-carbonitrile], 7.2 nM.
Still for that read-out and setting: under `CNc1cc(-c2ccc3cc(C#N)cnn23)ncc1-c1nnc([C@H]2C[C@H](NC(C)=O)C2)s1` [Example 282, N-((1r,3r)-3-(5-(6-(3-cyanopyrrolo[1,2-b]pyridazin-7-yl)-4-(methylamino)pyridin-3-yl)-1,3,4-thiadiazol-2-yl)cyclobutyl)acetamide] stands 22.4 nM; under `CC(C)Nc1cc(-c2ccc3cc(C#N)cnn23)ncc1-c1nnc(N2C[C@H]3CC[C@@H](C2)[C@@H]3NC(=O)CN=S(C)(C)=O)s1` [Example 98, N-((1R,5S,8s)-3-(5-(6-(3-cyanopyrrolo[1,2-b]pyridazin-7-yl)-4-(isopropylamino)pyridin-3-yl)-1,3,4-thiadiazol-2-yl)-3-azabicyclo[3.2.1]octan-8-yl)-2-((dimethyl(oxo)-16-sulfanylidene)amino)acetamide], 3.2 nM; under `CC(=O)N1[C@@H]2COC[C@H]1CN(c1nnc(-c3cnc(-c4ccc5cc(C#N)cnn45)cc3NC3CCOCC3)s1)C2` [Compound 269, 7-(5-(5-((1R,5S)-9-acety1-3-oxa-7,9-diazabicyclo[3.3.1]nonan-7-yl)-1,3,4-thiadiazol-2-yl)-4-((tetrahydro-2H-pyran-4-yl)amino)pyridin-2-yl)pyrrolo[1,2-b]pyridazine-3-carbonitrile], 5.8 nM.
Take `CC(=O)NC12CCC(c3nnc(-c4cnc(-c5ccc6cc(C#N)cnn56)cc4NC4COC4)s3)(C1)C2` [Compound 334]: under setting [1], the half-maximal effective concentration (EC50) came out at 98.9 nM.
With `CC(C)Nc1cc(-c2ccc3cc(C#N)cnn23)ncc1-c1nnc(N2CC3CCC(C2)C3(O)C(F)(F)F)s1` (stereo not drawn) [Example 159, 7-(5-(5-(8-hydroxy-8-(trifluoromethyl)-3-azabicyclo[3.2.1]octan-3-yl)-1,3,4-thiadiazol-2-yl)-4-(isopropylamino)pyridin-2-yl)pylrolo[1,2-b]pyridazine-3-carbonitrile], under setting [1], the EC50 amounted to 25.7 nM.
On to `CNC(=O)N[C@H]1CC[C@H](c2nnc(-c3cnc(-c4ccc5cc(C#N)cnn45)cc3NC(C)C)s2)CC1` [Example 140, 1-((1r,4r)-4-(5-(6-(3-cyanopyrrolo[1,2-b]pyridazin-7-yl)-4-(isopropylamino)pyridin-3-yl)-1,3,4-thiadiazol-2-yl)cyclohexyl)-3-methylurea], for which, under setting [1], the EC50 was 6.4 nM.
On the same count and under the same terms, under `CC(C)Nc1cc(-c2ccc3cc(C#N)cnn23)ncc1-c1nnc(N2CC[C@@](C)(O)[C@@H](F)C2)s1` [Example 186, 7-(5-(5-((3S,4R)-3-fluoro-4-hydroxy-4-methylpiperidin-l-yl)-1,3,4-thiadiazol-2-yl)-4-(isopropylamino)pyridin-2-yl)pyrrolo[1,2-b]pyridazine-3-carbonitrile] stands 8.4 nM.
Same read-out and setting: the same measure for `CC(C)Nc1cc(-c2ccc3cc(C#N)cnn23)ncc1-c1nnc(C2CCC(NC(=O)C(C)(C)C(=O)O)CC2)s1` (stereo not drawn) [Compound 341]: 72.4 nM.
Still for that read-out and setting: under `CC(C)Nc1cc(-c2ccc3cc(C#N)cnn23)ncc1-c1nnc(N2C[C@H]3CC[C@@H](C2)[C@@H]3NC(=O)[C@H]2C[C@](C)(O)C2)s1` [Example 92, (1r,3R)-N-((1R,5S,8s)-3-(5-(6-(3-cyanopyrrolo[1,2-b]pyridazin-7-yl)-4-(isopropylamino)pyridin-3-yl)-1,3,4-thiadiazol-2-yl)-3-azabicyclo[3.2.1]octan-8-yl)-3-hydroxy-3-methylcyclobutane-1-carboxamide] stands 5 nM; under `COC(=O)N[C@H]1CC[C@H](Nc2cc(-c3ccc4cc(C#N)cnn34)ncc2-c2nnc([C@H]3CC[C@H](NC(C)=O)CC3)s2)CC1` [Example 34, methyl ((1R,4r)-4-((5-(5-((1r,4R)-4-acetamidocyclohexyl)-1,3,4-thiadiazol-2-yl)-2-(3-cyanopyrrolo[1,2-b]pyridazin-7-yl)pyridin-4-yl)amino)cyclohexyl)carbamate], 4.9 nM.

The record behind these values is patent US11046686B2, “Thiadiazole IRAK4 compounds” (Gilead Sciences, Inc., priority 2018, dated 2021).
